Experimental data as given in patent US20130029970A1 (priority 2009, published 2013).

Assays:
human CB2 receptors = molecular target: T1, human CB2 receptors (Homo sapiens, UniProt P34972); assay: cAMP assay in HEK-293 cells, hCB2 agonist; type: cell-based; details: inhibition of forskolin-stimulated cAMP, HEK-293 cells; read-out: hCB2 EC50 (cAMP ag)
T1 construct: (cDNA clone) CNR0200000
Outline: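 HEK-293 cells stably expressing human CB2, suspended at 1,500,000 cells/mL in HBSS with 10 mM HEPES and 0.1% fatty-acid-free BSA, exposed to test compound plus forskolin (90 uM in the 3× compound solution) for 30 min at 37° C.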

[1] = molecular target: T2, recombinant human cannabinoid receptor CB2 (Homo sapiens, UniProt P34972); assay: Cannabinoid receptor radioligand binding assay, [3H]-CP 55,940 displacement, hCB2
T2 construct: (cDNA clone) CNR0200000
Outline: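 Membranes from hCB2-transfected cells, prepared by 1000×g then 40,000×g centrifugation, resuspended in 20 mM HEPES pH 7.4, 5 mM MgCl2, 1 mM EDTA, 10% sucrose.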

[2] = molecular target: T3, recombinant human cannabinoid receptor CB1 (Homo sapiens, UniProt P21554); assay: Cannabinoid receptor radioligand binding assay, [3H]-CP 55,940 displacement, hCB1
T3 construct: (cDNA clone) CNR01L000
Outline: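 Membranes from HEK-293 cells stably expressing human CB1, 2-10 μg protein, incubated 90 min at room temperature with 0.5 nM [3H]-CP 55,940 in Tris-HCl pH 7.5, MgCl2, EDTA and 0.1% fatty-acid-free BSA. Bound radioactivity counted after rapid filtration; nonspecific binding defined with 1 μM unlabeled CP 55,940.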

T3 sequence (P21554 whole entry): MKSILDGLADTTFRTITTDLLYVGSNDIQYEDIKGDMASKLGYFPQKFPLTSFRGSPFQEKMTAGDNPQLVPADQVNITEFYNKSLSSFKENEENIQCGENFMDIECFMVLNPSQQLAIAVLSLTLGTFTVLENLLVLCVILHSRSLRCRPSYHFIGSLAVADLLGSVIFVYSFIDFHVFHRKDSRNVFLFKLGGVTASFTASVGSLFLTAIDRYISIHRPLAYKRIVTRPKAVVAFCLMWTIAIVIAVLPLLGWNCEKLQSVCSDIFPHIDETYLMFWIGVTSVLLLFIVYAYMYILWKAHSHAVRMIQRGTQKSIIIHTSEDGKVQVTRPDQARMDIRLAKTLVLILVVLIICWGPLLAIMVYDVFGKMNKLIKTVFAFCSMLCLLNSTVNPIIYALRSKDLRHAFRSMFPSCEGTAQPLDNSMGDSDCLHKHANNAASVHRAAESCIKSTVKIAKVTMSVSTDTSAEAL
T2 sequence (P34972 whole entry): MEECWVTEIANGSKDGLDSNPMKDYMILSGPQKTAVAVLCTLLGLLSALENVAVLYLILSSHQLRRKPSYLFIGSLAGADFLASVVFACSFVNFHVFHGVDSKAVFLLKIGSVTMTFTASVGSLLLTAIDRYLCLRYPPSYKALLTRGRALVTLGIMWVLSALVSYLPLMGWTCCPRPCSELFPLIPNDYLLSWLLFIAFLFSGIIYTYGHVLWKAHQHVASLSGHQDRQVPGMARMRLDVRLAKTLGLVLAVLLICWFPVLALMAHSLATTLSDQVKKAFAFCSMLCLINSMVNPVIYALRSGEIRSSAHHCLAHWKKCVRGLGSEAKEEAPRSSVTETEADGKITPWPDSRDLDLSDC
T1 sequence (P34972 whole entry): as above

| Compound | EC50 (human CB2 receptors) [nM] | IC50 [1] [nM] | IC50 [2] [nM] |
| --- | --- | --- | --- |
| COc1cc(F)ccc1C(=O)c1cc2cc(C)n(CCN3CCOCC3)c2s1 [Compound 133, (4-fluoro-2-methoxyphenyl)(5-methyl-6-(2-morpholinoethyl)-6H-thieno[2,3-b]pyrrol-2-yl)methanone] | < 100 | < 100 | 100 to 1000 |
| Cc1cc2cc(C(=O)c3ccc(F)cc3F)sc2n1CCN1CCOCC1 [Compound 135, (2,4-difluorophenyl)(5-methyl-6-(2-morpholinoethyl)-6H-thieno[2,3-b]pyrrol-2-yl)methanone] | < 100 | 100 to 1000 | 1000 to 10000 |
| COc1ccc(C(=O)c2cc3cc(C)n(CCN4CCOCC4)c3s2)c(C)n1 [Compound 136, (6-methoxy-2-methylpyridin-3-yl)(5-methyl-6-(2-morpholinoethyl)-6H-thieno[2,3-b]pyrrol-2-yl)methanone] | < 100 | < 100 | 1000 to 10000 |
| COc1ccc(C(O)(c2cc3cc(C)n(CCN4CCOCC4)c3s2)C(F)(F)F)cc1 (stereo not drawn) [Compound 138, 2,2,2-trifluoro-1-(4-methoxyphenyl)-1-(5-methyl-6-(2-morpholinoethyl)-6H-thieno[2,3-b]pyrrol-2-yl)ethanol] | < 100 | 100 to 1000 | 1000 to 10000 |
| COc1ccc(C(=O)c2cc3cc(C)n(S(=O)(=O)CCN4CCOCC4)c3s2)cc1 [Compound 139, (4-methoxyphenyl)(5-methyl-6-(2-morpholinoethylsulfonyl)-6H-thieno[2,3-b]pyrrol-2-yl)methanone] | < 100 | < 100 | 100 to 1000 |
| COc1ccc(C(c2cc3cc(C)n(CCN4CCOCC4)c3s2)C(F)(F)F)cc1 (stereo not drawn) [Compound 141, 4-(2-(5-methyl-2-(2,2,2-trifluoro-1-(4-methoxyphenyl)ethyl)-6H-thieno[2,3-b]pyrrol-6-yl)ethyl)morpholine] | < 100 | 100 to 1000 | 1000 to 10000 |
| COc1ccc(C(=O)c2cc3cc(C)n(CCN4CCC(OC)C4)c3s2)cn1 (stereo not drawn) [Compound 147, (6-methoxypyridin-3-yl)(6-(2-(3-methoxypyrrolidin-1-yl)ethyl)-5-methyl-6H-thieno[2,3-b]pyrrol-2-yl)methanone] | 100 to 1000 | 1000 to 10000 | > 10000 |
